According to publication PMC9338942, “(+)-Usnic acid and its salts, inhibitors of SARS‐CoV‐2, identified by using in silico methods and in vitro assay” (Scientific Reports, 2022):

Experiments:
Test in all cases: microbe, parasite or virus in culture
Type in all cases: cell-based
Details in all cases: Severe acute respiratory syndrome coronavirus 2, vero cells
[1] = tested on: SARS-CoV-2 Beta var (B.1.351)
[2] = tested on: SARS-CoV-2 Delta var (B.1.617.2)
[3] = tested on: SARS-CoV-2 Alpha var (B.1.1.7)

Cc1cccc(C)c1OCC(=O)N[C@@H](Cc1ccccc1)[C@@H](O)C[C@H](Cc1ccccc1)NC(=O)[C@H](C(C)C)N1CCCNC1=O [lopinavir] showed an IC50 [1] of 11.8 µM, an IC50 [2] of 15.3 µM and an IC50 [3] of 10.8 µM.
For CC(=O)c1c(O)c(C)c(O)c2c1OC1=CC(=O)C(C(C)=O)C(=O)[C@@]12C (single isomer, unassigned; (+)) [(+)-usnic acid], the IC50 [1] was 2.92 µM, the IC50 [2] was 7.17 µM and the IC50 [3] was 6.05 µM.
CCC(CC)COC(=O)[C@H](C)N[P@](=O)(OC[C@H]1O[C@@](C#N)(c2ccc3c(N)ncnn23)[C@H](O)[C@@H]1O)Oc1ccccc1 [remdesivir] gave an IC50 [1] of 1.47 µM, an IC50 [2] of 6.48 µM and an IC50 [3] of 2.25 µM.
With CCN(CC)CCCC(C)Nc1ccnc2cc(Cl)ccc12 (stereo not drawn) [chloroquine] the IC50 [1] was 2.64 µM, the IC50 [2] was 6.22 µM and the IC50 [3] was 6.16 µM.
